# According to BindingDB's records for doi:10.1016/j.bmcl.2009.08.022 (Roche Palo Alto, 2009):
# Target: Genome polyprotein (Hepatitis C virus genotype 1b (isolate Con1), UniProt Q9WMX2)
# Assay: Inhibition of […] con1 NS5B polymerase assessed as [3H]UTP incorporation into acid insoluble RNA product
# Genome polyprotein, sequence (Q9WMX2 2420-3010 limits assumed): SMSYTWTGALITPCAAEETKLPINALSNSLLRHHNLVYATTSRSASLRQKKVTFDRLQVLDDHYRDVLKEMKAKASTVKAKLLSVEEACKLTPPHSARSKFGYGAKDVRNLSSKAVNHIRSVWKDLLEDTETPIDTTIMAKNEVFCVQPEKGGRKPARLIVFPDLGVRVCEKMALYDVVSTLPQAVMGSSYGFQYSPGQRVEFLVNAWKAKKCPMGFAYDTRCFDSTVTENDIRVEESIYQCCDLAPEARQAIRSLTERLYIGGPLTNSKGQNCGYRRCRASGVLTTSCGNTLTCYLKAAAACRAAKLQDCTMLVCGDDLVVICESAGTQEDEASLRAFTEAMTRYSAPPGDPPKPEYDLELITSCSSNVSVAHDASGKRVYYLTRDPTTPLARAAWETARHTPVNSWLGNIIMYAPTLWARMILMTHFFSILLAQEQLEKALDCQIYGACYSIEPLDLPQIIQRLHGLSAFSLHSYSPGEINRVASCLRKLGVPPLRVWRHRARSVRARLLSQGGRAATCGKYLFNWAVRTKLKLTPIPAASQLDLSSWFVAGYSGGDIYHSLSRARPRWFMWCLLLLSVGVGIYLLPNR
row,SMILES,IC50
1,"CC(C)(C)[C@H]1C(=O)C(=C2NS(=O)(=O)c3c(CCS(C)(=O)=O)cccc32)C(=O)N1Cc1ccc(F)cc1 [(S)-5-tert-Butyl-1-(4-fluoro-benzyl)-4-hydroxy-3-[7-(2-methanesulfonyl-ethyl)-1,1-dioxo-1H-1lambda*6*-benzo[d]isothiazol-3-yl]-1,5-dihydro-pyrrol-2-one]",4 nM
2,"Cc1cc(CN2C(=O)C(C3NS(=O)(=O)c4c(C=NS(N)(=O)=O)cccc43)C(=O)[C@@H]2C(C)(C)C)ccc1F (stereo partly drawn) [N-({3-[(5S)-5-tert-butyl-1-[(4-fluoro-3-methylphenyl)methyl]-4-hydroxy-2-oxo-2,5-dihydro-1H-pyrrol-3-yl]-1,1-dioxo-{6},2-benzothiazol-7-yl}methyl)aminosulfonamide]",3 nM
3,"Cc1cc(CN2C(=O)C(=C3NS(=O)(=O)c4c(CNS(C)(=O)=O)cccc43)C(=O)[C@@H]2C(C)(C)C)ccc1F [N-{3-[(S)-5-tert-Butyl-1-(4-fluoro-3-methyl-benzyl)-4-hydroxy-2-oxo-2,5-dihydro-1H-pyrrol-3-yl]-1,1-dioxo-1H-1lambda*6*-benzo[d]isothiazol-7-ylmethyl}-methanesulfonamide]",4 nM
4,"CC(C)(C)[C@H]1C(=O)C(=C2NS(=O)(=O)c3c(NS(C)(=O)=O)cccc32)C(=O)N1Cc1ccc(F)cc1 [N-{3-[(S)-5-tert-Butyl-1-(4-fluoro-benzyl)-4-hydroxy-2-oxo-2,5-dihydro-1H-pyrrol-3-yl]-1,1-dioxo-1H-1lambda*6*-benzo[d]isothiazol-7-yl}-methanesulfonamide]",5 nM

# More lines, in order of falling IC50, values ahead:
row,IC50,SMILES
1,5 nM,"Cc1cc(CN2C(=O)C(=C3NS(=O)(=O)c4c(CN(C)S(C)(=O)=O)cccc43)C(=O)[C@@H]2C(C)(C)C)ccc1F [N-{3-[(S)-5-tert-Butyl-1-(4-fluoro-3-methyl-benzyl)-4-hydroxy-2-oxo-2,5-dihydro-1H-pyrrol-3-yl]-1,1-dioxo-1H-1lambda*6*-benzo[d]isothiazol-7-ylmethyl}-N-methyl-methanesulfonamide]"
2,3 nM,"CC(C)(C)[C@H]1C(=O)C(C2NS(=O)(=O)c3c(C=NS(N)(=O)=O)cccc32)C(=O)N1Cc1ccc(F)cc1 (stereo partly drawn) [N-({3-[(5S)-5-tert-butyl-1-[(4-fluorophenyl)methyl]-4-hydroxy-2-oxo-2,5-dihydro-1H-pyrrol-3-yl]-1,1-dioxo-{6},2-benzothiazol-7-yl}methyl)aminosulfonamide]"
